According to patent US20130253060A1, “Intramural Research Program of the National Institutes of Health, National Institute of Environmental Health Sciences (NIEHS)” (priority 2011, published 2013):
“Also recorded” adds a separate entry of the source. Read-outs that look alike come from different tables or passages of the source.

Columns and labels:
[1] = system: rats maintained on dietary 10 ppm chlordecone; conditions: CCl4 100 μl/kg i.p. on day 16 to rats on dietary 10 ppm chlordecone for 15 days; cited from earlier work
[2] = system: secretory phospholipase A2 (sPLA2); test: sPLA2 activity in plasma; format: in vivo, mice
Experimental: (§1) Mice were given by intraperitoneal injection (i.p.) a lethal dose of APAP (600 mg/kg in 0.45 N NaCl, pH 8.2) or the vehicle alone. Treated mice were given a single injection of 20 mg/kg, i.p., BPPA, a sPLA2 inhibitor, after a set time interval (2, 4, and 8 hours after the dose of APAP). BPPA was purchased from a commercial source (Catalog No. 53319, Sigma Aldrich, St. Louis, Mo.). All the mice were observed six times on the first day and twice daily thereafter for 14 days for any mortality. […] Plasma was obtained by centrifugation of blood samples (1000 g for 20 min) for assessment of biochemical parameters of liver injury. The remaining plasma was quick-frozen in liquid nitrogen and stored at −80° C. until further analysis.
sPLA2 activity in the plasma was measured using sPLA2 activity kit (Cayman Chemicals, Ann Arbor, Mich.) as per the manufacturer's instructions. sPLA2 activity in plasma was expressed as sPLA2 units/ml. One unit of sPLA2 hydrolyzes one μmole of substrate (diheptanoyl Thio-phosphatidylcholine) per min at 25° C. and is expressed as μmoles substrate hydrolyzed/min/ml.

[3] = mice; cited from earlier work
[4] = humans; cited from earlier work
[5] = system: plasma alanine aminotransferase (ALT); test: Plasma alanine aminotransferase (ALT) as biomarker of liver injury; format: in vivo, mice
Experimental: as §1
Plasma was separated by centrifugation of the heparinized blood. Plasma alanine aminotransferase (ALT) was measured as a biomarker of liver injury using a kit from Thermo DMA (Waltham, Mass.). The results were ascertained by light microscopic examination of liver sections stained with hematoxylin and eosin (H&E).

[6] = system: Male Swiss Webster mice given a lethal dose of acetaminophen (APAP); test: Survival of mice given a lethal dose of APAP, with or without BPPA treatment; format: in vivo; conditions: for mortality: APAP alone
Experimental: Male Swiss Webster mice weighing between 25-30 g were obtained from Harlan Laboratories (Indianapolis, Ind.). Mice had unlimited access to rodent chow (Harlan Teklad Rat Chow No. 7001, Madison, Wis.) and water. The mice were housed over sawdust bedding free of any known chemical contaminants (Sani-chips; Harlan Teklad, Madison, Wis.) in air conditioned quarters (21±1° C.) with a 12 h photoperiod. All animal husbandry and handling conditions were as per the NIH Guide for Care and Use of Laboratory Animals. Research protocols were approved by the ULM Institutional Animal Care and Use Committee (IACUC).
as §1

[7] = system: rats receiving chlordecone (CD)+CCl4; test: Survival after chlordecone + CCl4 combination with BPPA treatment; format: in vivo; conditions: BPPA 20 mg/kg 1 hour after CCl4 injection; rats on chlordecone; data not shown
Experimental: A combination of two chemicals, which are known to be nontoxic individually at very low levels, is known to be highly toxic when combined in mammals. One of these is a chlorinated pesticide known as KEPONE™, which is commonly known as chlordecone. The other is the organic solvent, carbon tetrachloride (CCl4). Either chemical will be toxic if given at a sufficient dose. For example, chlordecone, administered to older rats at 120 mg/kg causes central nervous system (CNS) toxicity such as tremors, convulsions and death. CCl4 injected or given orally at 4 ml/kg causes severe liver necrosis, liver failure and death. […] Likewise, exposing rats to a single dose of 100 μl/kg CCL4, i.p. led to the classic centrilobular injury by 3 hours, which escalated to about 4 fold injury in the liver by 12 hours. However, by 24 hours, the liver injury was repaired and no liver injury was observed. In contrast, if the same dose of CCl4 was given to rats maintained on dietary 10 ppm chlordecone for 15 days, on day 16, all rats died within 3 days after injecting CCl4, which is about a 67-fold amplification of the toxicity for CCl4 (Mehendale, 1994).
Using this combination of chlordecone and CCL4, BPPA (20 mg/kg) was injected in the rats 1 hour after the injection of CCl4, and 90% of the rats receiving the chlordecone (CD)+CCl4 survived (data not shown).

[8] = system: mice lethally poisoned with thioacetamide; test: Rescue of mice lethally poisoned with thioacetamide by BPPA; format: in vivo; conditions: data not shown
Text: In addition, I have shown that sPLA2 mediates the liver injury initiated by thioacetamide, another hepatotoxicant, by showing mice lethally poisoned with thioacetamide were rescued by inhibiting sPLA2 with BPPA (data not shown).

[9] = APAP alone 600 mg/kg i.p., measured on Day 2, vs control and vehicle
[10] = BPPA 20 mg/kg 2 hours after APAP 600 mg/kg, surviving mice, over 14 days
[11] = BPPA 20 mg/kg 4 hours after APAP 600 mg/kg

In the case of `ClC(Cl)(Cl)Cl` [CCl4, carbon tetrachloride], the “amplification of the toxicity” value [1] is given as about 67 fold.

For `CC(=O)Nc1ccc(O)cc1` [APAP, Acetaminophen], the “plasma sPLA2 enzymatic activity” value [2, 9] is given as “increased”, the half-life [3] is given as 1 h and the half-life [4] is given as 2.5 h. For the same compound, the “plasma ALT enzymatic activity” value [5, 9] was “increased”, the mortality ([6]; single dose 600 mg/kg i.p., no further treatment) was 80% and the mortality ([6]; at 12 hours after injection) was 50%. For the same compound, the mortality ([6]; at 24 hours after injection) was 80%.

For `O=C(O)CC[C@@H](Cc1ccc(OCc2ccccc2)cc1)NC(=O)CCCCCCc1ccccc1` [BPPA, 5-(4-Benzyloxyphenyl)-4S-(7-phenylheptanoylamino) pentanoic acid], the “plasma sPLA2 activity” value [2, 10] was “down to the normal values; also recorded: decreased”, the “plasma sPLA2 level” value [2, 11] was “decreased to about normal levels” and the survival [7] was 90%. For the same compound, the “plasma ALT activity” value [5, 10] was “down to the normal values; also recorded: decreased”, the “plasma ALT level” value [5, 11] was “decreased to about normal levels” and the “rescue from lethal thioacetamide poisoning” value [8] was “rescued”. For the same compound, the mortality ([8]; mice lethally dosed with thioacetamide, treated with BPPA) was “less mortality”, the survival ([6]; BPPA 20 mg/kg i.p. 4 hours after APAP 600 mg/kg i.p., observed 14 days) was 70% and the survival ([6]; BPPA 20 mg/kg i.p. 8 hours after APAP 600 mg/kg i.p., observed 14 days) was 60%. The cumulative mortality ([6]; at 14 days, BPPA 20 mg/kg 2 hours after acetaminophen) was 10% and the survival ([6]; inhibitor administered 2 to 8 hours after APAP 600 mg/kg) was 60%-80.
